This is an account of results in patent US11292791B2 (priority 2017, dated 2022).

The experiment has as its target BRD4 (Homo sapiens (Human), UniProt O60885). The settings on record: read-out: BRD4 IC50 (μM gmean).

By IC50 is commonly meant the point on the concentration scale where inhibition reaches its midpoint. As to `COC(=O)N1c2ccc3c(nc(Cc4cnc(Cl)c(C)n4)n3[C@@H]3CCC[C@@H](C(=O)O)C3)c2CC[C@@H]1C` [Example 745], the IC50 was in the range of 1 to 1000 µM. For `COC(=O)N1c2ccc3c(nc(C(C)(O)c4ccccn4)n3C3CCCC(C(=O)O)C3)c2CC[C@@H]1C` (stereo partly shown) [Example 749], the IC50 lay in the range of 1 to 1000 µM. As for `COC(=O)N1c2ccc3c(nc(CC(C(=O)O)c4ccc(F)c(F)c4)n3C3CCCC3)c2CC[C@@H]1C` (stereo partly shown) [Example 751], the IC50 is 1 to 1000 µM.

As to `COC(=O)N1c2ccc3c(nc(COC4CCCC4)n3[C@H]3CC[C@H](C(=O)O)CC3)c2CC[C@@H]1C` [Example 752], the IC50 was 1 to 1000 µM.

`COC(=O)N1c2ccc3c(nc(C4(Cn5cccn5)CC4)n3[C@@H]3CCC[C@@H](C(=O)O)C3)c2CC[C@@H]1C` [Example 753]: the IC50 fell in the range of 1 to 1000 µM.

In the case of `COC(=O)N1c2ccc3c(nc(C(C)Cn4cccn4)n3C3CCS(=O)(=O)CC3)c2CC[C@@H]1C` (stereo partly shown) [Example 754], the IC50 was in the range of 1 to 1000 µM. With `COC(=O)N1c2ccc3c(nc(CC(C(=O)O)c4ccc(C(C)C)cc4)n3C3CCCOC3)c2CC[C@@H]1C` (stereo partly shown) [Example 756], the IC50 was 1 to 1000 µM.

With `COC(=O)N1c2ccc3c(nc(CC(C(=O)O)c4ccccc4)n3C3CCCC(OC)C3)c2CC[C@@H]1C` (stereo partly shown) [Example 757], the concentration for half-maximal inhibition (IC50) fell in the range of 1 to 1000 µM. As to `COC(=O)N1c2ccc3c(nc(CN4CCc5ccccc5C4=O)n3[C@@H]3CCC[C@@H](C(=O)O)C3)c2CC[C@@H]1C` [Example 758], the half-inhibitory concentration (IC50) is 1 to 1000 µM. For the compound `COC(=O)N1c2ccc3c(nc(COC4CCOCC4)n3[C@H]3CC[C@H](C(=O)O)CC3)c2CC[C@@H]1C` [Example 759], the IC50 was in the range of 1 to 1000 µM. The value for `COC(=O)N1c2ccc3c(nc(C(O)C4CCCC4)n3C3CCCC(C(=O)O)C3)c2CC[C@@H]1C` (stereo partly shown) [Example 762] was 1 to 1000 µM. The value for `COC(=O)N1c2ccc3c(nc(N(C)c4ccc(C#N)cc4)n3[C@H]3CC[C@H](C(=O)O)CC3)c2CC[C@@H]1C` [Example 769] was 1 to 1000 µM; that for `COC(=O)N1c2ccc3c(nc(C(C)Cn4cccn4)n3C3CCS(=O)(=O)C3)c2CC[C@@H]1C` (stereo partly shown) [Example 771] was 1 to 1000 µM; that for `COC(=O)N1c2ccc3c(nc(C(C)Cn4cccn4)n3C3CCS(=O)(=O)C3)c2CC[C@@H]1C` (stereo partly shown) [Example 772] was 1 to 1000 µM.

Consider `COC(=O)N1c2ccc3c(nc(CC(C(=O)O)c4ccc(F)cc4)n3C3CCCOC3)c2CC[C@@H]1C` (stereo partly shown) [Example 773], for which the IC50 fell in the range of 1 to 1000 µM. Turning to `COC(=O)N1c2ccc3c(nc(Cc4cncc(OC(C)C)c4)n3[C@@H]3CCC[C@@H](C(=O)O)C3)c2CC[C@@H]1C` [Example 775], the IC50 was 1 to 1000 µM.

As for `COC(=O)N1c2ccc3c(nc(Cc4ccc(C(F)(F)F)nn4)n3[C@@H]3CCC[C@@H](C(=O)O)C3)c2CC[C@@H]1C` [Example 777], the IC50 fell in the range of 1 to 1000 µM. On to `COC(=O)N1c2ccc3c(nc(Cc4ccccc4C(=O)O)n3C3CCOCC3)c2CC[C@@H]1C` [Example 778], for which the IC50 is 1 to 1000 µM. `COC(=O)N1c2ccc3c(nc([C@@H](c4ccccc4)S(C)(=O)=O)n3[C@H]3CC[C@H](C(=O)O)CC3)c2CC[C@@H]1C` [Example 779]: the concentration for half-maximal inhibition (IC50) lay in the range of 1 to 1000 µM. On to `COC(=O)N1c2ccc3c(nc(Cc4cccc(OC(C)C)n4)n3[C@H]3CC[C@H](C(=O)O)CC3)c2CC[C@@H]1C` [Example 780], for which the IC50 fell in the range of 1 to 1000 µM. For `COC(=O)N1c2ccc3c(nc(C(C)Cn4ccc(C)n4)n3C3CCCC(C(=O)O)C3)c2CC[C@@H]1C` (stereo partly shown) [Example 782], the IC50 was 1 to 1000 µM.

Consider `COC(=O)N1c2ccc3c(nc(CC(C(=O)O)c4ccc(C)c(F)c4)n3C3CCCOC3)c2CC[C@@H]1C` (stereo partly shown) [Example 783], for which the IC50 was in the range of 1 to 1000 µM. In the case of `COC(=O)N1c2ccc3c(nc(CCC4CCOCC4)n3[C@H]3CC[C@H](C(=O)O)CC3)c2CC[C@@H]1C` [Example 784], the IC50 was 1 to 1000 µM.

Regarding `COC(=O)N1c2ccc3c(nc(CC(C(=O)O)c4ccc(C(F)F)cc4)n3C3COCC(F)(F)C3)c2CC[C@@H]1C` (stereo partly shown) [Example 785], the IC50 is 1 to 1000 µM. `COC(=O)N1c2ccc3c(nc(CC(C(=O)O)c4ccccc4)n3-c3cccc(OC)c3)c2CC[C@@H]1C` (stereo partly shown) [Example 786]: the IC50 lay in the range of 1 to 1000 µM.

`COC(=O)N1c2ccc3c(nc(N(C)c4ccccc4)n3[C@@H]3CCC[C@@H](C(=O)O)C3)c2CC[C@@H]1C` [Example 787]: the IC50 was 1 to 1000 µM. Take `COC(=O)N1c2ccc3c(nc(CN4C(=O)CCc5ccccc54)n3[C@@H]3CCC[C@@H](C(=O)O)C3)c2CC[C@@H]1C` [Example 789]: the IC50 fell in the range of 1 to 1000 µM. Consider `COC(=O)N1c2ccc3c(nc(CC(C(=O)O)c4ccccc4)n3C3CCCC(OC)C3)c2CC[C@@H]1C` (stereo partly shown) [Example 791], for which the IC50 fell in the range of 1 to 1000 µM. Consider `COC(=O)N1c2ccc3c(nc(OCc4ccccc4)n3[C@H]3CC[C@H](C(=O)O)CC3)c2CC[C@@H]1C` [Example 792], for which the IC50 lay in the range of 1 to 1000 µM. Take `COC(=O)N1c2ccc3c(nc(Cc4cnc5cc[nH]c5n4)n3[C@@H]3CCC[C@@H](C(=O)O)C3)c2CC[C@@H]1C` [Example 795]: the IC50 was 1 to 1000 µM.

On to `COC(=O)N1c2ccc3c(nc(CC(=O)N4CCCC4)n3[C@@H]3CCC[C@@H](C(=O)O)C3)c2CC[C@@H]1C` [Example 798], for which the half-inhibitory concentration (IC50) fell in the range of 1 to 1000 µM. With `COC(=O)N1c2ccc3c(nc(Nc4cccc(F)c4)n3[C@@H]3CCC[C@@H](C(=O)O)C3)c2CC[C@@H]1C` [Example 802], the IC50 lay within 1 to 1000 µM. On to `COC(=O)N1c2ccc3c(nc(C(C)Cc4ccccc4)n3C3CCNCC3)c2CC[C@@H]1C` (stereo partly shown) [Example 803], for which the IC50 fell in the range of 1 to 1000 µM. Consider `COC(=O)N1c2ccc3c(nc(CC[C@H]4CCOC4)n3[C@@H]3CCC[C@@H](C(=O)O)C3)c2CC[C@@H]1C` [Example 804], for which the IC50 was 1 to 1000 µM. Regarding `COC(=O)N1c2ccc3c(nc(N(C)c4ccc(F)cc4)n3[C@H]3CC[C@H](C(=O)O)CC3)c2CC[C@@H]1C` [Example 805], the IC50 was 1 to 1000 µM.

For the compound `COC(=O)N1c2ccc3c(nc(CC4CCCOC4)n3C3CCCC(C(=O)O)C3)c2CC[C@@H]1C` (stereo partly shown) [Example 806], the IC50 lay in the range of 1 to 1000 µM. For the compound `COC(=O)N1c2ccc3c(nc(OCCc4ccccc4)n3[C@H]3CC[C@H](C(=O)O)CC3)c2CC[C@@H]1C` [Example 807], the 50% inhibitory concentration (IC50) fell in the range of 1 to 1000 µM. With `COC(=O)N1c2ccc3c(nc(OCCn4cc(Cl)cn4)n3[C@@H]3CCC[C@@H](C(=O)O)C3)c2CC[C@@H]1C` [Example 810] the figure was 1 to 1000 µM; with `COC(=O)N1c2ccc3c(nc(C(CO)c4ccccc4)n3C3CCC(C(=O)O)CC3)c2CC[C@@H]1C` (stereo partly shown) [Example 812], 1 to 1000 µM; with `COC(=O)N1c2ccc3c(nc(S(=O)(=O)c4ccccc4)n3[C@@H]3CCC[C@@H](C(=O)O)C3)c2CC[C@@H]1C` [Example 813], 1 to 1000 µM. The value for `COC(=O)N1c2ccc3c(nc(S(=O)(=O)Cc4ccccc4)n3[C@@H]3CCC[C@@H](C(=O)O)C3)c2CC[C@@H]1C` [Example 814] was 1 to 1000 µM; that for `COC(=O)N1c2ccc3c(nc(Cc4nccc(C)n4)n3[C@@H]3CCC[C@@H](C(=O)O)C3)c2CC[C@@H]1C` [Example 820] was 1 to 1000 µM; that for `C/C=C(/Oc1ccccc1)c1nc2c3c(ccc2n1[C@H]1CC[C@H](C(=O)O)CC1)N(C(=O)OC)[C@@H](C)CC3` [Example 821] was 1 to 1000 µM.

For `COC(=O)N1c2ccc3c(nc(C4(Oc5cnccn5)CC4)n3[C@H]3CC[C@H](C(=O)O)CC3)c2CC[C@@H]1C` [Example 823], the IC50 is 1 to 1000 µM. Consider `COC(=O)N1c2ccc3c(nc(C(C)Cn4ccc(C)n4)n3C3CCC(C(=O)O)CC3)c2CC[C@@H]1C` (stereo partly shown) [Example 824], for which the concentration for half-maximal inhibition (IC50) fell in the range of 1 to 1000 µM. `COC(=O)N1c2ccc3c(nc(C(C)Cn4ccc(Cl)n4)n3C3CCCC(C(=O)O)C3)c2CC[C@@H]1C` (stereo partly shown) [Example 827]: the IC50 was in the range of 1 to 1000 µM.

In the case of `COC(=O)N1c2ccc3c(nc(Cc4ncc(Cl)cn4)n3[C@@H]3CCC[C@@H](C(=O)O)C3)c2CC[C@@H]1C` [Example 828], the IC50 was 1 to 1000 µM.

Take `COC(=O)N1c2ccc3c(nc(CC(C(=O)O)c4ccc(C)cc4)n3C3CCCOC3)c2CC[C@@H]1C` (stereo partly shown) [Example 829]: the IC50 fell in the range of 1 to 1000 µM. On to `COC(=O)N1c2ccc3c(nc(Nc4ccc(Cl)cc4)n3[C@@H]3CCC[C@@H](C(=O)O)C3)c2CC[C@@H]1C` [Example 831], for which the IC50 lay within 1 to 1000 µM.

For the compound `COC(=O)N1c2ccc3c(nc(C(C)Oc4cnccn4)n3C3CCC(C(=O)O)CC3)c2CC[C@@H]1C` (stereo partly shown) [Example 833], the IC50 lay in the range of 1 to 1000 µM. Consider `COC(=O)N1c2ccc3c(nc(C(C)Cn4cc(C)cn4)n3C3CCS(=O)(=O)C3)c2CC[C@@H]1C` (stereo partly shown) [Example 834], for which the concentration for half-maximal inhibition (IC50) was in the range of 1 to 1000 µM. As to `COC(=O)[C@@H]1CCC[C@@H](n2c(Cc3ccccc3)nc3c4c(ccc32)N(C(=O)OC)[C@@H](C)CC4)C1` [Example 840], the IC50 lay in the range of 1 to 1000 µM.

For `COC(=O)N1c2ccc3c(nc(Nc4ccccc4)n3[C@H]3CC[C@H](C(=O)O)CC3)c2CC[C@@H]1C` [Example 843], the IC50 was 1 to 1000 µM. Take `COC(=O)N1c2ccc3c(nc(C(C)Cn4cc(C)cn4)n3C3CCS(=O)(=O)C3)c2CC[C@@H]1C` (stereo partly shown) [Example 844]: the IC50 is 1 to 1000 µM. The value for `COC(=O)N1c2ccc3c(nc(CC(C(=O)O)c4ccc(C)c(F)c4)n3C3CCCOC3)c2CC[C@@H]1C` (stereo partly shown) [Example 845] was 1 to 1000 µM; that for `COC(=O)N1c2ccc3c(nc(Nc4ccc(OC)cc4F)n3[C@@H]3CCC[C@@H](C(=O)O)C3)c2CC[C@@H]1C` [Example 846] was 1 to 1000 µM; that for `COC(=O)N1c2ccc3c(nc(CC(C(=O)O)c4ccccc4)n3-c3ccc(OC)cc3)c2CC[C@@H]1C` (stereo partly shown) [Example 849] was 1 to 1000 µM.

Regarding `COC(=O)N1c2ccc3c(nc(Nc4ccc(OC)cc4F)n3[C@H]3CC[C@H](C(=O)O)CC3)c2CC[C@@H]1C` [Example 851], the IC50 is 1 to 1000 µM. For `COC(=O)N1c2ccc3c(nc(CC(C(=O)O)c4cccc5ccccc45)n3C3CCCOC3)c2CC[C@@H]1C` (stereo partly shown) [Example 852], the IC50 lay in the range of 1 to 1000 µM. Regarding `COC(=O)N1c2ccc3c(nc(C4(c5cnccn5)CC4)n3[C@@H]3CCC[C@@H](C(=O)O)C3)c2CC[C@@H]1C` [Example 856], the IC50 was in the range of 1 to 1000 µM. On to `COC(=O)N1c2ccc3c(nc(Cc4ccc(N5CCCC5=O)cc4)n3[C@@H]3CCC[C@@H](C(=O)O)C3)c2CC[C@@H]1C` [Example 858], for which the IC50 was 1 to 1000 µM.
